Data published in PubChem BioAssay AID602267 (Broad Institute, 2012).
Active and inactive are the calls of the source.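 Rule for the calls: active = signal falls with dose and the fitted half-maximal concentration is at or below twice the top valid tested dose; inconclusive = flat curve with 30 to 70% inhibition, or poor fit; inactive = wrong direction, flat within 30%, or potency beyond limit.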

These compounds were tested against Golgi-associated PDZ and coiled-coil motif-containing protein (Homo sapiens) (UniProt Q9HD26) (assay: CAL PDZ domain peptide-binding inhibitors, dose response, biochemical, fluorescence polarization, untagged CAL PDZ, cherry-pick (AID 602267;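 for activity change, negative = inhibition: 0% = DMSO neutral wells and -100% = excess unlabeled competitor peptide wells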)). Details: purified CAL PDZ, TMR-peptide fluorescence polarization, 1 h.

Row | SMILES | AC50 [µM]
1 | O=C(O)CSc1cc(NS(=O)(=O)c2ccc(Br)cc2)c2ccccc2c1O | 29.7
2 | CCc1ccc(S(=O)(=O)/N=C2/C=C(Sc3ncn[nH]3)C(=O)c3ccccc32)cc1 | 16.4

Same assay, conditions: purified CAL PDZ, TMR-peptide fluorescence polarization, 1 h; at 16 µM (top of the series)

Row | SMILES | activity change, negative = inhibition
3 | O=C(OCC(=O)N1CCOCC1)c1ccc[nH]c1=O | inactive
4 | COCCCNC(=O)c1c[nH]c2ccc(S(=O)(=O)N3CCC(C)CC3)cc2c1=O | inactive
5 | COc1cccc(NC(=O)N2CCCCCC2)c1 | inactive

Same assay, conditions: purified CAL PDZ, TMR-peptide fluorescence polarization, 1 h; at 50 µM (top of the series)

Row | SMILES | activity change, negative = inhibition
6 | Cc1cc(C)nc(CCNC(=O)c2cc(COc3c(C)cccc3C)on2)n1 | inactive
7 | COc1cc([N+](=O)[O-])ccc1NC(=O)CN1CCN(C(=O)c2ccco2)CC1 | inactive
8 | Cc1ccc2nc(CSc3nnc(-c4ccncc4)n3C)cc(=O)n2c1 | inactive
9 | Cc1cc(C)c(OCC(=O)OC(C)C(=O)NC2CC2)c(C)c1 (configuration not stated) | inactive
10 | CC(=O)Nc1ccc(N/C=C/C(=O)c2ccccc2)cc1 | inactive
11 | CN(C(=O)CC1C(=O)NCCN1CC(c1ccccc1)c1ccccc1)C(C1CC1)C1CC1 (configuration not stated) | inactive
12 | Cc1cc(NC(=O)Cc2ccc(Br)cc2)no1 | inactive
13 | CCOc1ccc(N(CC(=O)N2CCN(Cc3ccccc3)CC2)S(C)(=O)=O)cc1 | inactive
14 | Cc1cc(/C=C2\SC(=O)N(C)C2=O)c(C)n1-c1ccc(O)cc1 | inactive
15 | C=CCNC(=S)Nc1ccc(C)c(S(=O)(=O)N2CCCCC2)c1 | inactive
16 | Cn1c(CNC(=O)OC(C)(C)C)n[nH]c1=S | inactive
17 | COc1cc(N(C)C)ccc1C=c1c2ccccc2n2c1cc(-c1ccccc1)[n+]2C | inactive
18 | COc1cc(OC)cc(C(=O)N[C@H](C(=O)Nc2nc3ccc(S(C)(=O)=O)cc3s2)C(C)C)c1 | inactive
19 | CCOCCCNC(=O)c1ccc2c(=O)n(Cc3ccc4c(c3)OCO4)c(=S)[nH]c2c1 | inactive
20 | CCC1C(=O)NCCN1C(=O)CCc1nnc(CCc2ccc(OC)cc2)o1 (configuration not stated) | inactive
21 | O=C(Nc1ccc(Cl)cc1)c1ccc(CN2CCc3ccccc3C2)cc1 | inactive
22 | Cc1cccc(Nc2nc(-c3ccc(F)cc3)cs2)n1 | inactive
23 | O=S(=O)(/N=C(/Nc1ccc(Cl)c(S(=O)(=O)N2CCOCC2)c1)c1ccc(F)cc1)c1ccccc1 | inactive
24 | CCOc1ccc(C2=Nn3c(nnc3-c3ccco3)SC2)cc1 | inactive
25 | CCN(CC)Cc1c(O)ccc2c1O/C(=C\C=C\c1ccccc1)C2=O | inactive
26 | CC(C)(C)OC(=O)N[C@@H](Cc1c[nH]c2ccccc12)c1nnc(SCC(N)=O)o1 | inactive
27 | CC(=O)NC(Cc1ccccc1)C(C)=O (configuration not stated) | inactive
28 | CC12CCC(C(=O)N(CCCN3CCN(Cc4ccccc4)CC3)C1=O)C2(C)C (configuration not stated) | inactive
29 | C(=C/c1nccc2c1[nH]c1ccccc12)/c1ccc2c(c1)OCO2 | inactive
30 | O=C(c1c(Cl)cccc1Cl)N1CCCCCC1 | inactive
31 | CCCOc1ccc(S(=O)(=O)Nc2ccccn2)c2ccccc12 | inactive

Row | SMILES | activity change, negative = inhibition
32 | O=C(CCCn1c(=S)[nH]c2cc3c(cc2c1=O)OCO3)N1CCN(c2ccc(Cl)cc2)CC1 | inactive
33 | CC1CCN(C(=O)COC(=O)c2cccs2)CC1 | inactive
34 | C/C(=N\NC(=O)c1cc(-c2ccc(C)s2)nc2ccccc12)c1cccnc1 | inactive
35 | Cc1ccc(S(=O)(=O)N2CCN(C(=O)c3ccccn3)CC2)cc1 | inactive
36 | Cc1cc(NC(=O)CSc2nnc(-c3ccccc3)c(-c3ccccc3)n2)no1 | inactive
37 | COCC(=O)Nc1ccc2nc3n(c(=O)c2c1)CCCCC3 | inactive
38 | Cc1ccccc1N1CCN(S(=O)(=O)c2ccccc2)CC1 | inactive
39 | Cc1nc(Cl)sc1C(=O)Nc1cc(F)cc(F)c1 | inactive
40 | O=C1OC2(CCCCC2)OC(=O)C1=CNc1nc2ccccc2s1 | inactive
41 | CCCCN(CCCC)CCNC(=O)c1ccc2nc(-c3ccccc3NC(C)=O)c(=O)[nH]c2c1 | inactive
42 | O=c1c2cc3c(cc2[nH]c(=S)n1CCN1CCOCC1)OCO3 | inactive
43 | O=C(NCc1ccccc1)C1CCCN(c2nc3ccsc3c(=O)s2)C1 (configuration not stated) | inactive
44 | CC(=O)N1N=C(c2ccccc2)CC1c1ccccc1 (configuration not stated) | inactive
45 | Cc1ccc2nc(NCc3ccc(F)cc3)c3nncn3c2c1 | inactive
46 | CCc1ccc(C2CC(=O)N(c3cccc(F)c3)C3=C2C(=O)OC3)cc1 (configuration not stated) | inactive
47 | COc1cc(Br)c(C(=O)c2nccc3cc(OC)c(OC)cc23)cc1OC | inactive
48 | Cc1cccc(NC(=O)Cn2cnc3c(oc4ccccc43)c2=O)c1C | inactive
49 | CN(C)c1ccc(P(=O)(OC2CCCCC2)C(O)c2cccnc2)cc1 (configuration not stated) | inactive
50 | O=C(NC(Cc1c[nH]c2ccccc12)C(=O)O)/C(=C/c1ccc(F)cc1)NC(=O)c1ccccc1 (configuration not stated) | inactive
51 | O=C(NCCCn1ccnc1)c1ccccc1F | inactive
52 | CN(Cc1nccn1C)C(=O)c1cc(COc2ccc3ncccc3c2)on1 | inactive
53 | O=C(NCCc1ccccc1)C1CCC(=O)N(CCCN2CCCC2=O)C1 (configuration not stated) | inactive
54 | O=C(COC(=O)CNC(=O)c1cccc([N+](=O)[O-])c1)NCc1ccco1 | inactive
55 | Cc1ccnc(SCC(=O)N2CCC(C(N)=O)CC2)n1 | inactive
56 | c1ccc(CNc2nc(NCc3ccccc3)c3ccccc3n2)cc1 | inactive
57 | CC(C)CNC(=O)CN1C(=O)NC(Cc2c[nH]c3ccccc23)C1=O (configuration not stated) | inactive

Row | SMILES | activity change, negative = inhibition
58 | O=C1CN=C(c2ccccc2)c2oc3ccc(Br)cc3c2N1 | inactive
59 | CCCCN1CC(O)=C(c2nc(-c3ccc(Cl)cc3)cs2)C1=N | inactive
60 | COc1ccc(/C=N/Nc2cc(C)nc3ccc(OC)cc23)c(OC)c1 | inactive
61 | CCCNC(=O)C(=O)NCC1CCCN1CC (configuration not stated) | inactive
62 | O=C(COc1ccc(Cl)cc1Cl)Nc1nnc(C2=COCCO2)o1 | inactive
63 | COc1ccc(CC(=O)NCC2CCCN(Cc3cccc(SC)c3)C2)cc1 (configuration not stated) | inactive
64 | O=C(Nc1ccc([N+](=O)[O-])cc1)Nc1cnccn1 | inactive
65 | O=C(NC1CCCCCCC1)c1cc([N+](=O)[O-])ccc1Cl | inactive
66 | Cn1c(=O)c2c(nc(SCC(=O)NCC3CCCO3)n2Cc2ccc(F)cc2)n(C)c1=O (configuration not stated) | inactive
67 | Cc1ccc(C(C)NC(=O)Cc2cccs2)c(C)c1 (configuration not stated) | inactive
68 | Cc1ccc(S(=O)(=O)N2CCN(CCC#N)CC2)cc1 | inactive
69 | Cc1ccc2cc(C#N)c(N3CCCN(S(=O)(=O)c4ccccc4)CC3)nc2c1 | inactive
70 | CCOC(=O)c1nc(NCCc2ccccc2)sc1C | inactive
71 | CCN(CC)S(=O)(=O)c1cc(C(=O)Oc2ccccc2OC)ccc1OC | inactive
72 | Cc1ccc(F)cc1N=Cc1c(O)c2ccccc2oc1=O | inactive
73 | CNC(=O)c1nnn(Cc2ccccc2)c1NC(C)=O | inactive
74 | O=C(O)CCCC(=O)N1N=C(c2ccccc2)CC1c1ccc2c(c1)OCO2 (configuration not stated) | inactive
75 | O=C1c2ccccc2C(O)N1c1ccccc1 (configuration not stated) | inactive
76 | O=C(O)c1[nH]c2ccccc2c1C(c1ccccc1)c1c(C(=O)O)[nH]c2ccccc12 | inactive
77 | CCN(CC)S(=O)(=O)c1ccc(/C=C/C(=O)OCC(=O)N(C)C)cc1 | inactive
78 | O=C(O)c1ccc(Oc2cc(Oc3ccc(C(=O)O)cc3)cc([N+](=O)[O-])c2)cc1 | inactive
79 | CCOC(=O)/C=C/C(=O)OCC(=O)Nc1ccc([N+](=O)[O-])cc1 | inactive
80 | COc1cc(NS(=O)(=O)c2ccc(NC(=S)Nc3ccccc3)cc2)nc(OC)n1 | inactive
81 | NC(=O)C1CCN(c2ncccc2[N+](=O)[O-])CC1 | inactive
82 | CCNC(=S)N1CCc2cc(OC)c(OC)cc2C1COc1ccc(OC)cc1 (configuration not stated) | inactive
